According to patent US20090203634A1, “Compositions and Uses of Amooranin Compounds” (Variety Children's Hospital d/b/a Miami Children's Hospital, priority 2005, published 2009):
Values after ≈ are worked out from the molar mass of the structure shown. Where a name gives a salt, the structure may show the parent alone. Read-outs that look alike come from different tables or passages of the source. Marks after values point to notes of the source that are not given here.

How the values were obtained:
[1] = test system: CEM/VLB; experiment: MTT cytotoxicity assay (Examples 1-5); type: cell-based, human
Description: (§1) Cytotoxicity Assay (Examples 1-5). […] Cell proliferation kit I (MTT) from Roche Diagnostics GmbH (Indianapolis, Ind.) was used for cytotoxicity assays and manufacturers protocol was followed for the assay.

[2] = test system: CEM; experiment: MTT cytotoxicity assay (Examples 1-5); type: cell-based, human
Description: as §1

[3] = test system: SW620/Ad-300; experiment: MTT cytotoxicity assay (Examples 1-5); type: cell-based, human; conditions: for IC50: mean ± SD (n = 3)
Description: as §1

[4] = test system: SW620; experiment: MTT cytotoxicity assay (Examples 1-5); type: cell-based, human; conditions: mean ± SD (n = 3), read-out: AMR IC50
Description: Cell proliferation kit I (MTT) from Roche Diagnostics GmbH (Indianapolis, Ind.) was used for cytotoxicity assays and manufacturers protocol was followed for the assay.

[5] = test system: CEM/VLB; experiment: DNA histogram analysis of cell cycle distribution; type: cell-based, human; conditions: AMR 0-2.5 μg/ml, 48 hours, up from 18.0% without AMR
Protocol: (§2) DNA Histogram Analysis. Following drug exposure for 48 hours, cells were centrifuged and resuspended in propidium iodide-hypotonic citrate solution for 1 hour before flow cytometric analysis of cell cycle distribution (Ramachandran, C. et al. Biochem Pharmacol, 1995, 49:545-552).

[6] = test system: CEM; experiment: DNA histogram analysis of cell cycle distribution; type: cell-based, human; conditions: AMR 0-2.5 μg/ml, 48 hours, up from 18.0% without AMR
Protocol: as §2

[7] = test system: SW620/Ad-300; experiment: DNA histogram analysis of cell cycle distribution; type: cell-based, human; conditions: AMR 0-2.5 μg/ml, 48 hours, up from 15.6% without AMR
Protocol: as §2

[8] = test system: SW620; experiment: DNA histogram analysis of cell cycle distribution; type: cell-based, human; conditions: AMR 0-2.5 μg/ml, 48 hours, up from 12.5% without AMR
Protocol: as §2

[9] = test system: CEM/VLB; experiment: Cellular DOX content by flow cytometry; type: cell-based, human; conditions: DOX 2 μg/ml with 1 and 2 μg/ml AMR
Protocol: (§3) Cellular DOX Content. […] Cellular DOX fluorescence was analyzed in a Coulter Elite flow cytometer. Fluorescence emission (above 530 nm) from at least 10,000 cells were collected, amplified and scaled to generate a single parameter histogram (Ramachandran, C. et al. Biochem Phammacol, 1995, 49:545-552).

[10] = test system: CEM; experiment: Cellular DOX content by flow cytometry; type: cell-based, human; conditions: DOX 2 μg/ml with 1 or 2 μg/ml AMR
Protocol: as §3

[11] = test system: SW620/Ad-300; experiment: Cellular DOX content by flow cytometry; type: cell-based, human; conditions: DOX 2 μg/ml with 1 and 2 μg/ml AMR
Protocol: as §3

[12] = test system: SW620; experiment: Cellular DOX content by flow cytometry; type: cell-based, human; conditions: DOX 2 μg/ml with 1 or 2 μg/ml AMR
Protocol: as §3

[13] = test system: MCF-10A; experiment: MTT cytotoxicity assay (Examples 6-8); type: cell-based, human; conditions: 0-8 μg/ml AMR for 48 hours
Protocol: (§4) Cytotoxicity assay (Examples 6-8). MTT assay was used to determine drug sensitivity (Hansen, M. B. et al. J Immunol Methods, 1989, 119:203-210). Cells (1×10^4) were grown in 96-well plates and after 48 hours, the medium was replaced with new medium. The cells were incubated at 37° C. with varying concentrations of AMR for 48 hours at 37° C. Cell viability was then assayed by adding MTT dye (500 μg/ml). Six hours after incubation period, MTT containing medium was removed. The formazan crystals were dissolved in 100 μl/well dimethyl sulfoxide, and the plates were read in BIO-RAD Benchmark Microplate Reader at 570 nm wavelength. All experiments were repeated three times with three replications in each and the mean values were estimated. Student's t test was used to determine the significant difference between IC50 values.

[14] = test system: MCF-7/TH; experiment: MTT cytotoxicity assay (Examples 6-8); type: cell-based, human; conditions: 0-8 μg/ml AMR for 48 hours
Protocol: as §4

[15] = test system: MCF-7; experiment: MTT cytotoxicity assay (Examples 6-8); type: cell-based, human; conditions: 0-8 μg/ml AMR for 48 hours
Protocol: as §4

[16] = test system: MCF-10A; experiment: Cell cycle analysis by flow cytometry; type: cell-based, human; conditions: 1 μg/ml AMR
Protocol: (§5) Cell cycle analysis. The number of cells in each stage of the cell cycle was monitored by flow cytometric analysis of cellular DNA content after staining with 1 mg/ml propidium iodide (Chen, G. et al. Cancer Res, 1993, 53:2544-2547). Data was analyzed to determine the percentage of cells at each phase of the cell cycle (G0+G1, S, and G2+M).

[17] = test system: MCF-7/TH; experiment: Cell cycle analysis by flow cytometry; type: cell-based, human; conditions: 1 μg/ml AMR, one range printed for MCF-7 and MCF-7/TH together
Protocol: as §5

[18] = test system: MCF-7; experiment: Cell cycle analysis by flow cytometry; type: cell-based, human; conditions: 1 μg/ml AMR, one range printed for MCF-7 and MCF-7/TH together
Protocol: as §5

[19] = test system: MCF-10A; experiment: TUNEL assay of DNA fragmentation; type: cell-based, human
Protocol: (§6) Analysis of DNA fragmentation by agarose gel electrophoresis. To assess the pattern of DNA cleavage caused by AMR, agarose gel electrophoresis was performed as described by Cohen and Duke (Cohen, J. J. and Duke, R. C. J Immunol, 1984, 132:38-42). Briefly, control and drug-treated cells (2×10^6 cells) were lysed with 0.5 ml lysis buffer containing 0.2% Triton X-100 at room temperature for 30 minutes. The supernatant fractions were collected by centrifugation at 12,000×g for 30 minutes. The DNA in these fractions was precipitated overnight with 100 μl 5 M sodium chloride and 0.5 ml 2-isopropanol at −20° C. The DNA was dissolved in 20 μl of 10 mM Tris-HCl (pH 7.4) and 1 mM EDTA buffer. RNase (10 units) was added to the samples before incubating at 60° C. for 1 hour. An equal volume of loading buffer was added afterwards and the samples were subjected to electrophoresis on a 2% agarose gel in Tris borate buffer at 50 V for 3 hours. The agarose gel was stained with ethidium bromide, and DNA fragmentation pattern was visualized in a UV transilluminator. AMR-induced DNA fragmentation was also analyzed by TUNEL assay using in situ cell detection kit according to manufacturer's instructions. Briefly, cells were permeabilized in a solution containing 0.1% Triton X-100 and 0.1% (w/v) sodium citrate for 2 minutes. After washing in PBS, cells were incubated with label solution and terminal transferase. Cells were incubated without terminal deoxynucleotidyl transferase was used as negative control. DNase (1 μg/ml) treated cells incubated with label solution in the presence of terminal deoxynucleotidyl transferase (TUNEL reaction mixture) was used as positive control and the details of TUNEL assay have been described earlier (Ramachandran, C. et al. Anticancer Res, 1997, 17:3369-3376).

[20] = test system: MCF-7/TH; experiment: TUNEL assay of DNA fragmentation; type: cell-based, human
Protocol: as §6

[21] = test system: MCF-7; experiment: TUNEL assay of DNA fragmentation; type: cell-based, human
Protocol: as §6

[22] = test system: MCF-10A; experiment: DNA fragmentation by agarose gel electrophoresis; type: cell-based, human
Protocol: as §6

[23] = test system: MCF-7/TH; experiment: DNA fragmentation by agarose gel electrophoresis; type: cell-based, human
Protocol: as §6

[24] = test system: MCF-7; experiment: DNA fragmentation by agarose gel electrophoresis; type: cell-based, human
Protocol: as §6

[25] = test system: MCF-10A; experiment: Caspase-8 (LETD) activity by flow cytometry; type: cell-based, human; conditions: AMR 1-8 μg/ml, 48 hours
Protocol: (§7) Detection of apoptosis and caspase activity. Breast carcinoma or breast epithelial cells were incubated for 48 hours in the presence or absence of AMR (1-8 μg/ml). AMR-induced apoptosis was evaluated by Fluorescein Caspase (VAD) Activity Kit and caspase-8 (LETD) Activity Kit according to manufacturer's instructions ([…]-Calvo, M. et al. J Biol Chem, 1998, 273:32608-32613).

[26] = test system: MCF-7/TH; experiment: Caspase-8 (LETD) activity by flow cytometry; type: cell-based, human; conditions: AMR 1-8 μg/ml, 48 hours
Protocol: as §7

[27] = test system: MCF-7; experiment: Caspase-8 (LETD) activity by flow cytometry; type: cell-based, human; conditions: AMR 1-8 μg/ml, 48 hours
Protocol: as §7

[28] = test system: SW620 human tumor xenografts; experiment: Xenograft studies with AMR in nude mice; type: in vivo; conditions: for Therapeutic ratio: Therapeutic Ratio = 100 - Tumor Growth Rate Index (GRI)
Protocol: Xenograft studies with AMR in nude mice. Male athymic nude (nu/nu) mice of the BALB/c strain (4-5 weeks old) were purchased from Taconic Labs, NY. SW620 colon carcinoma cells (10^6/site) in 0.1 ml of Hank's balanced salt solution were injected subcutaneously into the right flank of the nude mice using a 21 gauge needle. When the tumors reached approximately 0.5 cm^3 size in volume (usually 14 days), chemotherapy with AMR was started involving six animals in each group with almost similar size tumors. […] AMR was dissolved in 1:1 mixture of Cremophor EL and ethanol for administration and the control treatments were doxorubicin dissolved in phosphate dissolved saline and saline alone (0 mg/kg). Tumor size (length and width) was recorded on every fifth day of treatment along with body weight and survival data. Tumor volume was calculated using the following formula: […]
Tumor growth rate was calculated as mean V1/V0 where V1 is the volume on the evaluation day of treatment effect and V0 is that on the first day of treatment. The growth rate index and therapeutic index estimates were calculated using the following formulae:
Therapeutic Ratio=100—Tumor Growth Rate Index (GRI)

CC1(C)CC[C@]2(C(=O)O)CC[C@]3(C)C(=CC[C@@H]4[C@@]5(CO)CCC(=O)C(C)(C)[C@@H]5CC[C@]43C)[C@@H]2C1 [AMR, 25-hydroxy-3-oxoolean-12-en-28-oic acid]
Modulator Index (MI = fold decrease in resistance/modulator in μM concentration) ([1]; CEM/VLB): 40
resistance to AMR ([1]; CEM/VLB versus CEM): 1.9 fold
IC50 ([1]; CEM/VLB, mean ± SD (n = 3), read-out: AMR IC50): 10.2 ± 0.11 µM
IC50 ([2]; mean ± SD (n = 3), read-out: AMR IC50): 5.31 ± 0.02 µM
Modulator Index (MI = fold decrease in resistance/modulator in μM concentration) ([3]; SW620/Ad-300): 41.6
IC50 ([3]; SW620/Ad-300, read-out: AMR IC50): 12.7 ± 0.27 µM
resistance to AMR ([3]; SW620/Ad-300 versus SW620): 1.6 fold
IC50 [4]: 7.7 ± 0.15 µM
percentage of G2+M cells [5]: 48.7%
percentage of G2+M cells [6]: 61.1%
G2+M percentage [7]: 52.8%
G2+M percentage [8]: 59.5%
cellular DOX accumulation [9]: increased cellular DOX accumulation in a dose-dependent manner
cellular DOX fluorescence [10]: No significant change
cellular DOX accumulation [11]: increased cellular DOX accumulation in a dose-dependent manner
cellular DOX fluorescence [12]: No significant change
IC50 [13]: 6.9 µg/mL (≈ 14.7 µM)
IC50 [14]: 6.8 µg/mL (≈ 14.4 µM)
IC50 [15]: 3.8 µg/mL (≈ 8.07 µM)
G2/M phase arrest [16]: does not induce any G2/M phase arrest
accumulation in G2+M phase population [17]: 12.4%-32.2%
accumulation in G2+M phase population [18]: 12.4%-32.2%
cells with DNA fragmentation (TUNEL) ([19]; AMR 1-8 μg/ml, 48 hours): 0-37.1%
cells with DNA fragmentation (TUNEL) ([20]; AMR 1-8 μg/ml, 48 hours): 32-48.7%
cells with DNA fragmentation (TUNEL) ([21]; AMR 1-8 μg/ml, 48 hours): 37.3-72.1%
DNA fragmentation ([22]; 1 μg/ml AMR for 48 hours): almost undetectable
DNA ladder pattern ([22]; AMR treatment for 48 hours): less distinct
DNA ladder pattern ([23]; 1 μg/ml AMR for 48 hours): highly visible
DNA ladder pattern ([23]; AMR treatment for 48 hours): distinct ladder pattern
DNA ladder pattern ([24]; 1 μg/ml AMR for 48 hours): highly visible
DNA ladder pattern ([24]; AMR treatment for 48 hours): distinct ladder pattern
cells with caspase activation (caspase-8 positive cells) [25]: 4-32.8%
cells with caspase activation (caspase-8 positive cells) [26]: 28.5-43.2%
cells with caspase activation (caspase-8 positive cells) [27]: 40.8-71%
Survival (%) ([28]; 2 mg/kg): 83.3%
Therapeutic ratio ([28]; 2 mg/kg): 61.3**
Survival (%) ([28]; 5 mg/kg): 57.1%
Therapeutic ratio ([28]; 5 mg/kg): 37.6**
Survival (%) ([28]; 10 mg/kg): 57.1%
Therapeutic ratio ([28]; 10 mg/kg): 41.9**
tumor growth rate ([28]; AMR 2-10 mg/kg intraperitoneal, compared to doxorubicin (2 mg/kg) or saline): significantly reduced tumor growth rate

COc1cccc2c1C(=O)c1c(O)c3c(c(O)c1C2=O)C[C@@](O)(C(=O)CO)C[C@@H]3O[C@H]1C[C@H](N)[C@H](O)[C@H](C)O1 [DOX, Doxorubicin hydrochloride, reference compound]
resistance to DOX ([1]; CEM/VLB versus CEM): approximately 112 fold
IC50 ([1]; Homo sapiens, read-out: DOX IC50, CEM/VLB, 48 hours exposure): 13.4 µg/mL
IC50 ([1]; Homo sapiens, read-out: DOX IC50, CEM/VLB, mean ± SD (n = 3)): 23.1 ± 0.78 µM
IC50 ([2]; Homo sapiens, CCRF-CEM, read-out: DOX IC50, 48 hours exposure): 0.12 µg/mL
IC50 ([2]; Homo sapiens, CCRF-CEM, read-out: DOX IC50, mean ± SD (n = 3)): 0.23 ± 0.02 µM
IC50 ([3]; Homo sapiens, SW620/AD300, read-out: DOX IC50, SW620/Ad-300): 28.9 ± 0.95 µM
resistance to DOX ([3]; SW620/Ad-300 versus SW620, based on IC50 values): approximately 125 fold
Survival (%) ([28]; 2 mg/kg): 83.3%

DNase [reference compound]
apoptotic cells (TUNEL) ([19]; DNase-treated positive control): more than 95%
apoptotic cells (TUNEL) ([20]; DNase-treated positive control): more than 95%
apoptotic cells (TUNEL) ([21]; DNase-treated positive control): more than 95%
